Experimental data from patent publication US6586191B2 (priority 1996, dated 2003).
Peptide text beside a SMILES is read from it.

How the values were obtained:
rat GALR1 receptor [1] = molecular target: T1, rat GALR1 receptor (Rattus norvegicus, UniProt Q62805); experiment: biochemical
T1 sequence (Q62805 1-346): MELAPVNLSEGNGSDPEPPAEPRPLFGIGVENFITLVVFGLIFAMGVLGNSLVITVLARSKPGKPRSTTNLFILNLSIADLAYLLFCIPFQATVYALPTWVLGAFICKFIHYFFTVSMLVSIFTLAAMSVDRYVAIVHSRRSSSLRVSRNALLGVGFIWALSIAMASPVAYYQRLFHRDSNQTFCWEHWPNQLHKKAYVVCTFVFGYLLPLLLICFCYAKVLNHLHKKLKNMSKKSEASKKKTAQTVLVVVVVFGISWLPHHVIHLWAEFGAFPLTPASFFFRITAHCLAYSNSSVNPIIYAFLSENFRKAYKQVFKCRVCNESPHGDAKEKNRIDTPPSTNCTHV

rat GALR1 receptor [2] = molecular target: T1, rat GALR1 receptor; assay type: cell-based; parameters: expressed in transfected cells; host or cells: COS-7 (transient); settings: for fold less potent than porcine galanin in the rat GalR1 cAMP assay: LM(tk-) rat GALR1
rat GALR2 receptor [3] = molecular target: T2, rat GALR2 receptor (Rattus norvegicus, UniProt O08726); experiment: arachidonic acid release in CHO cells stably transfected with rat GALR2 (C-rGalR2-79); assay type: cell-based; parameters: expressed in transfected cells
T2 sequence (O08726 1-372): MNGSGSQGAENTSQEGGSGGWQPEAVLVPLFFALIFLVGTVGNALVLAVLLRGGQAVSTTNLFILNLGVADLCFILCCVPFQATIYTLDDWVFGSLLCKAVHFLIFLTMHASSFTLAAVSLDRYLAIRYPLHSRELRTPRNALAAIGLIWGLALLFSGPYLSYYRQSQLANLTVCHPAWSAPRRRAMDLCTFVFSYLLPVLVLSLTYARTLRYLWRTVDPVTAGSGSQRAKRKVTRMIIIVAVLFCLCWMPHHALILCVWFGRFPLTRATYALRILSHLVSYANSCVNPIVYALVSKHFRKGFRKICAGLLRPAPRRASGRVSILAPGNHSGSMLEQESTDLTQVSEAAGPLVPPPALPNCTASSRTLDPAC
Protocol: The labeled cells were washed three times with 200 ul HAM's F-12. The wells were then filled with medium (200 uL) and the assay was initiated with the addition of peptides or buffer (22 uL). Cells were incubated for 30 min at 37° C., 5% CO2. Supernatants were transferred to a microtiter plate and evaporated to dryness at 75° C. in a vacuum oven. Samples were then dissolved and resuspended in 25 uL distilled water. Scintillant (300 uL) was added to each well and samples were counted for ^3H in a Trilux plate reader. Data were analyzed using nonlinear regression and statistical techniques available in the GraphPAD Prism package (San Diego, Calif.).

human GALR2 receptor = molecular target: T3, human GALR2 receptor (Homo sapiens, UniProt O43603); experiment: MAP kinase phosphorylation (western blot) in CHO cells expressing human GALR2; assay type: cell-based; settings: CHO human GALR2, 10 minutes, human galanin (10 μM)
T3 construct: To obtain a full-length hGALR2 clone, superpools of a human heart cDNA library were screened by PCR; expressed in transfected cells
T3 sequence (O43603 1-387): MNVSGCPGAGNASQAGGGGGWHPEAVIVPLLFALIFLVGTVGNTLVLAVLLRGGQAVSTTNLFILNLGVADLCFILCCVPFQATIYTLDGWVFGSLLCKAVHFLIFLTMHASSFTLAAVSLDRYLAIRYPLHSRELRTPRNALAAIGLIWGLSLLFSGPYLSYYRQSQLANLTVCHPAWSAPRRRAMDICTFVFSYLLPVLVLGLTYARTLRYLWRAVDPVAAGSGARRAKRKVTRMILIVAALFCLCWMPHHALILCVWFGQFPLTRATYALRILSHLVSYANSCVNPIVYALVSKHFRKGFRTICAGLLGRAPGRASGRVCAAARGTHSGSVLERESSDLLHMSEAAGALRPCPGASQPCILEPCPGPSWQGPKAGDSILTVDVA
Protocol: (§1) CHO cells expressing either the rat GALR2 receptor or the human GALR2 receptor were plated at ˜50% confluence into well-plates and grown in culture with fetal bovine serum reduced to 0.5% for 2 days. Fresh medium was exchanged for old and then aspirated after 2 hrs. […] Cells were washed with phosphate buffered saline and lysed in 100 uL Laemmli sample buffer (Bio-Rad) containing 5% β-mercaptoethanol. Cell lysate was scraped off the plate, transferred to a microfuge tube on ice, and sonicated for 10-15 seconds. Samples were heated at 100° C. for 3-5 minutes. Insoluble material was collected by centrifugation at 10,000×g for 5 min. Supernatant (20 μL/lane) was loaded onto a 4-20% polyacrylamide Bio-Rad Ready-Gel (10×10 cm) together with a phospho-MAP kinase protein standard (New England BioLabs) and molecular weight markers. […] The phospho-MAP kinase complex was detected by chemiluminescence using Lumiglow reagent (New England BioLabs) and Kodak X-Omat film, with exposure times ranging from 10 to 120 seconds.
(§2) Another functional assay relies on the fact that MAP kinase phosphorylation precedes the activation of phospholipase A2. We tested whether galanin-dependent activation of GALR2 could be monitored by changes in MAP kinase phosphorylation. […]

rat GALR2 receptor [4] = molecular target: T2, rat GALR2 receptor; experiment: MAP kinase phosphorylation (western blot) in CHO cells expressing rat GALR2; assay type: cell-based; parameters: expressed in transfected cells; settings: CHO rat GALR2, 10 minutes, human galanin (10 μM)
Protocol: as §1, §2

[5] = system: galanin binding sites in brain, spinal cord, pancreatic islets and cell lines, gastrointestinal smooth muscle; settings: read-out: affinity of high-affinity galanin binding sites; several mammalian species and tissues; cited from earlier work
rat GALR2 receptor [6] = molecular target: T2, rat GALR2 receptor; experiment: intracellular calcium mobilization (Fura-2) in cells transfected with rat GALR2; assay type: cell-based; parameters: expressed in transfected cells
Protocol: The intracellular free calcium concentration may be measured by microspectroflourometry using the fluorescent indicator dye Fura-2/AM (Bush et al. 1991). Stably transfected cells are seeded onto a 35 mm culture dish containing a glass coverslip insert. Cells are washed with HBS and loaded with 100 μL of Fura-2/AM (10 μM) for 20 to 40 min. After washing with HBS to remove the Fura-2/AM solution, cells are equilibrated in HBS for 10 to 20 min. Cells are then visualized under the 40× objective of a Leitz Fluovert FS microscope and fluorescence emission is determined at 510 nm with excitation wavelengths alternating between […]. Raw fluorescence data are converted to calcium concentrations using standard calcium concentration curves and software analysis techniques.

rat GALR2 receptor [7] = molecular target: T2, rat GALR2 receptor; experiment: GTPgamma35S binding to membranes of cells transfected with rat GalR2; assay type: biochemical; parameters: expressed in transfected cells; settings: 1 μM peptide, n=3
Protocol: Membranes from cells transfected with the rat GalR2 receptor were suspended in assay buffer (50 mM Tris, 100 mM NaCl, 5 mM MgCl2, pH 7.4) supplemented with 0.1% BSA, 0.1% bacitracin and 10 μM GDP. Membranes were incubated on ice for 20 minutes, transferred to a 96-well Millipore microtiter GF/C filter plate and mixed with GTPγ^35S (250,000 cpm/sample, specific activity ˜1000 Ci/mmol) plus or minus GTPγS (final concentration=100 μM). Final membrane protein concentration=90 μg/mL. […] Samples collected in the filter plate were treated with scintillant and counted for ^35S in a Trilux (Wallac) liquid scintillation counter.
The signal transduction pathway outlined for rat GalR2 allows for the development of functional assays other than inositol phosphate, calcium, and arachidonic acid determination. One such assay relies on the fact that binding of GTP to a G-protein precedes agonist-dependent activation of phospholipase C. we examined whether galanin-dependent activation of GALR2 could be monitored by the binding of GTPγ^35S to membranes from stably transfected cells.

rat GALR2 receptor [8] = molecular target: T2, rat GALR2 receptor; experiment: voltage clamp currents in Xenopus oocytes injected with rGalR2 mRNA; assay type: cell-based; parameters: expressed in transfected cells; settings: 100-1000 nM, oocytes injected with 5-50 pg rGalR2 mRNA, holding potential -80 mV
[9] = system: [125I]galanin binding sites in rat brain; experiment: galanin receptor autoradiography, displacement of [125I]galanin from rat brain tissue sections; settings: 5 μM
Protocol: Male Sprague-Dawley rats (Charles River, Wilmington, Mass.) were euthanized using CO2, decapitated, and their brains immediately removed and frozen on dry ice. Tissue sections were cut at 20 μm using a cryostat and thaw mounted onto gelatin coated slides. Tissues were preincubated in two 10 minute changes of 50 mM Tris-HCl buffer pH 7.4, containing 5 mM MgSO4 and 2 mM EGTA (Sigma). […] After incubation, tissues were dipped twice in ice-cold Tris-HCl buffer (40° C.), followed by a 5 minute wash in ice-cold Tris-HCl buffer (4° C.), then dipped twice in ice-cold deionized water to remove the salts. Sections were placed in X-ray cassettes and apposed to Dupont Cronex MRF 34 Film for 5 days. Films were developed using a Kodak M35A Processor.

## CC(C)C[C@H](NC(=O)[C@H](CC(C)C)NC(=O)[C@@H](Cc1c[nH]c2ccccc12)NC(=O)[C@H](Cc1ccccc1)NC(=O)[C@@H](Cc1c[nH]c2ccccc12)NC(=O)[C@H](CCC(N)=O)NC(=O)[C@H](CCC(N)=O)NC(=O)[C@@H]1CCCN1C(=O)[C@H](CCCCN)NC(=O)[C@@H]1CCCN1C(=O)[C@@H](CCCNC(=N)N)NC(=O)[C@@H]1CCCN1C(=O)CNC(=O)[C@H](CC(C)C)NC(=O)[C@H](CC(C)C)NC(=O)[C@H](Cc1ccc(O)cc1)NC(=O)CNC(=O)[C@H](C)NC(=O)[C@H](CO)NC(=O)[C@H](CC(N)=O)NC(=O)[C@H](CC(C)C)NC(=O)[C@@H](NC(=O)[C@H](Cc1c[nH]c2ccccc12)NC(=O)CN)[C@@H](C)O)C(N)=O [Peptide C7, C7] (HELM PEPTIDE1{G.W.T.L.N.S.A.G.Y.L.L.G.P.[dR].P.K.P.Q.Q.[dW].F.[dW].L.L.[am]}$$$$V2.0; N-terminus and C-terminus assumed)
Rat GALR1 receptor [1]
  Ki: 16.2 nM
Rat GALR1 receptor [2]; read-out: LM(tk-) Rat GALR1 cAMP assay EC50
  EC50: 0.52 nM

## CC[C@H](C)[C@H](NC(=O)[C@H](C)NC(=O)[C@H](Cc1c[nH]cn1)NC(=O)[C@@H]1CCCN1C(=O)CNC(=O)[C@H](CC(C)C)NC(=O)[C@H](CC(C)C)NC(=O)[C@H](Cc1ccc(O)cc1)NC(=O)CNC(=O)[C@H](C)NC(=O)[C@H](CO)NC(=O)[C@H](CC(N)=O)NC(=O)[C@H](CC(C)C)NC(=O)[C@@H](NC(=O)[C@H](Cc1c[nH]c2ccccc12)NC(=O)CNC(=O)[C@H](CCCNC(=N)N)NC(=O)[C@H](CCCCN)NC(=O)[C@H](CCC(=O)O)NC(=O)[C@H](CCCCN)NC(=O)[C@@H](NC(=O)[C@@H]1CCCN1C(=O)[C@@H](N)CO)C(C)C)[C@@H](C)O)C(=O)N[C@@H](CC(=O)O)C(=O)N[C@@H](CC(N)=O)C(=O)N[C@@H](Cc1c[nH]cn1)C(=O)N[C@@H](CCCNC(=N)N)C(=O)N[C@@H](CO)C(=O)N[C@@H](Cc1ccccc1)C(=O)N[C@@H](Cc1c[nH]cn1)C(=O)N[C@@H](CC(=O)O)C(=O)N[C@@H](CCCCN)C(=O)N[C@@H](Cc1ccc(O)cc1)C(=O)NCC(=O)N[C@@H](CC(C)C)C(=O)N[C@@H](C)C(N)=O [porcine galanin (−7) to (+29)]
Rat GALR2 receptor [3]
  fold less potent than porcine galanin in the rat GalR2 arachidonic acid assay: 3 fold
Rat GALR1 receptor [2]
  fold less potent than porcine galanin in the rat GalR1 cAMP assay: 350 fold

## CC[C@H](C)[C@H](NC(=O)[C@H](C)NC(=O)[C@H](Cc1c[nH]cn1)NC(=O)[C@@H]1CCCN1C(=O)CNC(=O)[C@H](CC(C)C)NC(=O)[C@H](CC(C)C)NC(=O)[C@H](Cc1ccc(O)cc1)NC(=O)CNC(=O)[C@H](C)NC(=O)[C@H](CO)NC(=O)[C@H](CC(N)=O)NC(=O)[C@H](CC(C)C)NC(=O)[C@@H](NC(=O)[C@H](Cc1c[nH]c2ccccc12)NC(=O)CNC(=O)[C@H](CCCNC(=N)N)NC(=O)[C@H](CCCCN)NC(=O)[C@H](CCC(=O)O)NC(=O)[C@H](CCCCN)NC(=O)[C@@H](NC(=O)[C@@H]1CCCN1C(=O)[C@H](CO)NC(=O)CNC(=O)[C@@H](N)CC(C)C)C(C)C)[C@@H](C)O)C(=O)N[C@@H](CC(=O)O)C(=O)N[C@@H](CC(N)=O)C(=O)N[C@@H](Cc1c[nH]cn1)C(=O)N[C@@H](CCCNC(=N)N)C(=O)N[C@@H](CO)C(=O)N[C@@H](Cc1ccccc1)C(=O)N[C@@H](Cc1c[nH]cn1)C(=O)N[C@@H](CC(=O)O)C(=O)N[C@@H](CCCCN)C(=O)N[C@@H](Cc1ccc(O)cc1)C(=O)NCC(=O)N[C@@H](CC(C)C)C(=O)N[C@@H](C)C(N)=O [porcine galanin (−9) to (+29)]
Rat GALR2 receptor [3]
  fold less potent than porcine galanin in the rat GalR2 arachidonic acid assay: 2 fold
Rat GALR1 receptor [2]
  fold less potent than porcine galanin in the rat GalR1 cAMP assay: 400 fold

## Human galanin
Human GALR2 receptor
  phosphorylated MAP kinase levels: increase
Rat GALR2 receptor [4]
  phosphorylated MAP kinase levels: increase

## [^125I]porcine galanin
[5]
  Kd: 0.5 to 1 nM

## porcine galanin (1-29)
Rat GALR2 receptor [6]; COS-7 cells transfected with rat GALR2 cDNA
  effect on intracellular calcium levels: no effect
Rat GALR2 receptor [7]; C-rGALR2-79 membranes, without peptide 8,014±113 cpm
  binding of GTPγ35S in presence of peptide: 10,292±104 cpm
Rat GALR2 receptor [7]; L-rGalR2I-4 membranes (intronless), without peptide 27,545±504 cpm
  binding of GTPγ35S in presence of peptide: 29,011±526 cpm
Rat GALR2 receptor [8]
  activation of rapid inward currents (oocytes responding): 36 of 46
[9]
  displacement of [125I]galanin binding from rat brain tissue sections: complete displacement

## rat galanin
Rat GALR2 receptor [6]; 1 μM peptide, C-rGALR2-79, n=9, not in untransfected cells
  increase of intracellular free [Ca+2] (Δ[Ca+2]): 310 ± 70 nM
